From patent US9708282B1, “Anti-inflammatory and antiepileptic neuroprotective statin compounds” (NEURON BIOPHARMA, S.A., priority 2013, dated 2017)

What was measured:
[1] = target: T1, 3-hydroxy-3-methylglutaryl coenzyme A reductase (HMGCR) (Homo sapiens, UniProt P04035); assay: Inhibition of HMGCR enzymatic activity in vitro (NADPH absorbance at 340 nm); type: biochemical; conditions: hydroxy acid forms
T1 construct: representing oxidation of NADPH by the catalytic subunit of HMGCR in the presence of the substrate
T1 sequence (P04035 426-888 limits assumed): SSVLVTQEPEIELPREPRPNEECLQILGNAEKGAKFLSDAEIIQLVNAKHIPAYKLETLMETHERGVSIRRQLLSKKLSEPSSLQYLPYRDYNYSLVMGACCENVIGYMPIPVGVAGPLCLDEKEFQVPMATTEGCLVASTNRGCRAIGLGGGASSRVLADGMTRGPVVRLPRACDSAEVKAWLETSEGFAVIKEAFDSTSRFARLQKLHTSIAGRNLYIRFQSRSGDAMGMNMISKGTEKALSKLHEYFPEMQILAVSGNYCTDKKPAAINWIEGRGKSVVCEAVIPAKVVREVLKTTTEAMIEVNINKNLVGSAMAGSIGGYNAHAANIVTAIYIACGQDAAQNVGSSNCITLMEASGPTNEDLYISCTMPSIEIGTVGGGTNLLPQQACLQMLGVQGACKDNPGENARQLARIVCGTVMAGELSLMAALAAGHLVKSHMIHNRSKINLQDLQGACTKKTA
Excerpt: The degree of inhibition of the HMGCR enzyme in vitro by NST0076 and NST0078 in the hydroxy acid form thereof was studied.
During the reaction, HMGCR uses NADPH (Nicotinamide Adenine Dinucleotide Phosphate) as reducing agent and 3-hydroxy-3-methylglutaryl coenzyme A (HMG-CoA) as substrate. Mevalonic acid is obtained as a reaction product, and it serves as substrate for the subsequent reaction to continue with cholesterol synthesis. The enzymatic reaction object of study is schematized as follows: HMG-CoA+2.NADPH+2.H^+→Mevalonic acid+2.NADP^++CoASH
This in vitro assay is based on the spectrophotometric measurement of the decrease in absorbance at 340 nm, representing oxidation of NADPH by the catalytic subunit of HMGCR in the presence of the substrate. […] Briefly, the assay is performed in a 96-well plate with reaction buffer 50 mM KH2PO4, 1 M KCl, 2 mg/ml bovine serum albumin (BSA) and 5 mM DTT, at pH=7.3, and the concentrations of the reagents in the reaction mixture are 0.2 mM HMG-CoA, 3 μU/point HMGCR and 0.2 mM NADPH. The plate is read in a spectrophotometer at 340 nm and 37° C.

transgenic ApoB100 mice = assay: Hypocholesterolemic effect in endogenous (familial) hypercholesterolemia model; type: in vivo; conditions: 50 mg/kg i.p., 12 h after treatment, male ApoB100 mice
Experimental: The mice were inoculated i.p. with 50 mg/kg of the compounds. Control mice were inoculated with equivalent volumes of the vehicle. Blood was drawn in fasting conditions before treating the animals and 12 h after treatments. Plasma, which was subsequently frozen, was obtained in both cases. The plasma total, LDL and HDL cholesterol concentration was quantified by enzymatic and spectrophotometric methods. After determining cholesterol levels and cholesterol fraction levels (baseline levels and 12 h after treatments), the change thereof with respect to the baseline level was calculated, and the results were depicted as a percentage with respect to the control group.

reactive astroglia = assay: Protection against brain inflammation (astrogliosis, GFAP immunohistochemistry) induced by kainate; type: in vivo, mice; conditions: 3.125 mg/kg i.p. 24 h and 0.5 h before kainate 23 mg/kg, then 1 dose/day for three days; surviving animals
Experimental: Based on the coronal sections of the brain obtained during the experiment described above, astrogliosis was analyzed by means of bright field immunohistochemistry for the glial fibrillary acidic protein (GFAP) in surviving animals.
The degree to which astrogliosis has spread (or score) was determined on a scale of intensity from 0 to 3, where zero indicates the absence of reactive astroglia and three indicates maximum reactive astroglia, for each of the groups.

β-secretase (BACE) [2] = target: T2, β-secretase (BACE) (Mus musculus, UniProt P56818); assay: β-secretase (BACE) enzymatic activity in the brain of mice after i.p. administration; type: in vivo; conditions: 50 mg/kg i.p., 24 h after administration, FVB mice, brain homogenates
T2 construct: contacting a BACE-specific, fluorogenic substrate with a brain homogenate in which the enzyme is present; from tissue; host or cells: brain (without cerebellum) of FVB mice
T2 sequence (P56818 46-501): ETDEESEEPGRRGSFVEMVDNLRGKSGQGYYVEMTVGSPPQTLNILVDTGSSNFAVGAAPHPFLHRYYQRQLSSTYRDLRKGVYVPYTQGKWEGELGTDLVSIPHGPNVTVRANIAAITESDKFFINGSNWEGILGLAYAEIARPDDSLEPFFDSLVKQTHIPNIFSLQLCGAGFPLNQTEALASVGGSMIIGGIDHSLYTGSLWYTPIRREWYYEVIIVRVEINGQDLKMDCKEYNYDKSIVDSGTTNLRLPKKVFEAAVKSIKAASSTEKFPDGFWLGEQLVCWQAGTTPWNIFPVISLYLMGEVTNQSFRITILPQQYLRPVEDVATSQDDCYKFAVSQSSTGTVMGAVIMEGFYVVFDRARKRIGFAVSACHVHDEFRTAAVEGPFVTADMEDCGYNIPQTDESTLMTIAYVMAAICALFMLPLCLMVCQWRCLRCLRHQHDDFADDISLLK
Experimental: During the reaction, contacting a BACE-specific, fluorogenic substrate with a brain homogenate in which the enzyme is present allows quantifying the enzyme activity by means of measuring the fluorescence emitted.
Female FVB mice 4 months of age were treated i.p. with 50 mg/kg of the compounds or with equivalent volumes of the vehicle (n=6 mice/group). After 24 h, the animals were sacrificed and the brain was extracted and frozen at −20° C., first disposing of the cerebellum. After freezing the brains for 24 h, they were homogenized by making a 1/100 dilution in 0.1 M sodium acetate at pH 4. The samples were incubated for 10 minutes under cold conditions to favor lysis and to obtain the extract after centrifuging at 10,000 g for 10 minutes. The enzymatic reaction was then carried out. […] 50 μL of a 20 μM fluorogenic BACE substrate (Mca-[…]) were added to the samples and controls, the final concentration in the well being 10 μM and the total reaction volume being 100 μL. […] The results obtained in arbitrary units were normalized by the amount of protein that was determined by the bicinchoninic acid (BCA) method.

β-secretase (BACE) [3] = assay: β-secretase (BACE) enzymatic activity in the brain of zebra fish after i.p. administration; type: in vivo; conditions: 100 mg/kg i.p., 24 h after administration, zebra fish 24 months of age
Experimental: The compounds object of study were prepared at different concentrations according to the weight of the animals in 0.5% methylcellulose in physiological saline, homogeneous suspensions thereof being obtained. Female zebra fish 24 months of age were treated i.p. with 100 mg/kg of the compounds or with equivalent volumes of the vehicle (n=8 fish/group). After 24 h, the animals were sacrificed and the brain was extracted and frozen at −20° C. After freezing the brains for 24 h, they were homogenized in 500 μL of 0.1 M sodium acetate at pH 4. The samples were incubated for 10 minutes under cold conditions to favor lysis and to obtain the extract after centrifuging at 10,000 g for 10 minutes. The enzymatic reaction was then carried out in the same way as in the case mice.

[4] = Concentrations in the brain of mice after i.p. administration (UPLC-MS); type: in vivo; conditions: male FVB mice, lactone forms; for AUC in the brain: 50 mg/kg i.p., 1, 2, 4 and 6 h; for Brain AUC and Cmax compared with simvastatin: 50 mg/kg i.p.
Experimental: (§1) Male FVB mice 4 months of age were treated i.p. with 50 mg/kg of the compounds (n=4-8 mice/group/time). The animals were sacrificed 1, 2, 4 and 6 h after treatment by means of injecting Eutanax, the blood and brain being extracted after perfusion with PBS. The plasma obtained from the blood and the entire brain were frozen at −20° C. until analysis. The compounds were extracted from the tissues with ethyl acetate and resuspended in ethanol for subsequent UPLC-MS quantification. Fluvastatin was used as an internal standard.

[5] = Concentrations in plasma of mice after i.p. administration (UPLC-MS); type: in vivo; conditions: male FVB mice, lactone forms; for Plasma levels compared with simvastatin: 50 mg/kg i.p.; for AUC: mouse, plasma, ip, 50 mg/kg i.p., 1, 2, 4 and 6 h
Experimental: as §1

FVB/NRj mice = assay: Protection against epilepsy caused by kainate (Racine scale); conditions: 3.125 mg/kg i.p. 24 h and 0.5 h before kainate 23 mg/kg
[6] = test system: neurons of the hippocampus; conditions: 3.125 mg/kg i.p. 24 h and 0.5 h before kainate 23 mg/kg, then 1 dose/day for three days

CCC(CC)C(=O)O[C@H]1C[C@@H](C)C=C2C=C[C@H](C)[C@H](CC[C@@H]3C[C@@H](O)C(CC)C(=O)O3)[C@H]21 (stereo partly drawn) [NST0078, (1S,3R,7S,8S,8aR)-8-(2-((2R,4R)-5-ethyl-4-hydroxy-6-oxo-tetrahydro-2H-pyran-2-yl)ethyl)-3,7-dimethyl-1,2,3,7,8,8a-hexahydronaphthalen-1-yl 2-ethylbutanoate]
HMGCR inhibition, times less than simvastatin [1]: about 1,900 times
Hypocholesterolemic effect (change in plasma total, LDL and HDL cholesterol) (transgenic ApoB100 mice): did not show any hypocholesterolemic effect
Degree of astrogliosis induced by kainate (score 0 to 3) (reactive astroglia): protected against astrogliosis induced by kainate in all the studied regions
BACE enzymatic activity in the brain of mice (β-secretase (BACE) [2]): capable of reducing BACE enzymatic activity in a statistically significant manner
BACE enzymatic activity in the brain of zebra fish (β-secretase (BACE) [3]): capable of reducing BACE enzymatic activity with respect to the control in a statistically significant manner
AUC in the brain [4]: 17 µg·h/g
Brain AUC and Cmax compared with simvastatin [4]: AUC and Cmax values surprisingly greater than those of simvastatin
Plasma levels compared with simvastatin [5]: plasma levels considerably greater than simvastatin
AUC [5]: 17000 ng·h/mL
Levels of epilepsy (AUC of Racine scale over 120 min, with respect to Vehicle+KA group) (FVB/NRj mice): greater reduction of the levels of epilepsy compared to simvastatin
Percentage of animals without damage (hippocampus) [6]: 60%

CCC(CC)C(=O)O[C@H]1C[C@@H](C)C=C2C=C[C@H](C)[C@H](CC[C@@H]3C[C@@H](O)C(C)C(=O)O3)[C@H]21 (stereo partly drawn) [NST0076, (1S,3R,7S,8S,8aR)-8-(2-((2R,4R)-4-hydroxy-5-methyl-6-oxo-tetrahydro-2H-pyran-2-yl)ethyl)-3,7-dimethyl-1,2,3,7,8,8a-hexahydro-naphthalen-1-yl 2-ethylbutanoate]
HMGCR inhibition (in words) [1]: do not significantly inhibit the HMGCR enzyme
HMGCR inhibition, times less than simvastatin [1]: about 28 times
IC50 ([1]; 20 min, 37° C., read-out: IC50 (concentration at which 50% of the HMGCR enzymatic activity is inhibited)): 603 ± 177 nM
Hypocholesterolemic effect (change in plasma total, LDL and HDL cholesterol) (transgenic ApoB100 mice): did not show any hypocholesterolemic effect
Degree of astrogliosis induced by kainate (score 0 to 3) (reactive astroglia): protected against astrogliosis induced by kainate in all the studied regions
BACE enzymatic activity in the brain of mice (β-secretase (BACE) [2]): capable of reducing BACE enzymatic activity in a statistically significant manner
AUC in the brain [4]: 37 µg·h/g
Brain AUC and Cmax compared with simvastatin [4]: AUC and Cmax values surprisingly greater than those of simvastatin
Plasma levels compared with simvastatin [5]: plasma levels considerably greater than simvastatin
AUC [5]: 12000 ng·h/mL
Levels of epilepsy (AUC of Racine scale over 120 min, with respect to Vehicle+KA group) (FVB/NRj mice): greater reduction of the levels of epilepsy compared to simvastatin
Percentage of animals without damage (hippocampus) [6]: 50%

CCC(C)(C)C(=O)O[C@H]1C[C@@H](C)C=C2C=C[C@H](C)[C@H](CC[C@@H]3C[C@@H](O)CC(=O)O3)[C@H]21 [simvastatin, reference compound]
Percentage of animals without damage (hippocampus) [6]: 25%

C[C@H]1C=C2C=C[C@H](C)[C@H](CC[C@@H]3C[C@@H](O)CC(=O)O3)[C@H]2[C@@H](O)C1 [monacolin J, reference compound]
HMGCR inhibition (in words) [1]: HMGCR inhibitory capacity much less than that of simvastatin
